Data taken from patent publication US20240174625A1, “COMPOSITIONS AND METHODS FOR TREATING TAUOPATHIES” (The Regents of the University of California, priority 2021, published 2024).

Legend:
NPEPPS = target: T1, NPEPPS (Homo sapiens, UniProt P55786); assay: Cell-based NPEPPS activity assay (Q-AMC fluorescence); conditions: log10 transformed; EC50 = concentration that elevates 50% NPEPPS activity (150% of DMSO baseline); HEK293T cells
T1 construct: endogenous in cells; host or cells: HEK293T
Protocol: HEK293T cells (AATC) were maintained in a complete media containing DMEM (Gibco 11995-065) in the presence of 10% fetal bovine serum (FBS, Gibco 10082147), […] penicillin and 50 μg/ml streptomycin (Gibco 15140163) at 37° C. with 5% CO2. NPEPPS activity assay was conducted in a fresh-prepared minimal medium containing essential amino acids, vitamin, AlbuMax (Invitrogen 11021-029) in 1×HBS buffer. Black wall, clear bottom 384-well assay plates (Greiner EK-30092) were coated with poly-L-ornithine (0.1 mg/ml, Sigma P3655) overnight and washed once with 1×PBS. 15 μl minimal medium was then added to each well. 250 nL of compounds dissolved in OmniSolve methylsulfoxide (dimethyl sulfoxide, DMSO, Sigma MX1456P) were pinned to each well via Biomek FX^P Liquid Handling Automation (Beckman Coulter) from compound source plates, i.e., either pre-made compound libraries or JMM compounds (20-step, 2-fold dilution) dissolved in OmniSolve DMSO prepared via Biomek automation in 384-well clear V-bottom polypropylene microplates (ThermoScientific 50-823-639). Cells were harvested, resuspended in minimal medium, and seeded at 16,500 cells/15 μl/well in the 384-well assay plates. 24 hrs later, 30 μl 200 μM H-Gln-AMC hydrobromide salt (Q-AMC, Bachem #I-1175) in 1×HBS containing 0.1% DMSO was added into each well. The fluorescent signal at excitation/emission wavelengths of 360/460 nm was measured immediately upon Q-AMC addition and 3 hrs post-Q-AMC. The change in fluorescence is measured as a readout of NPEPPS activity.
To identify small molecules that either increase NPEPPS levels or NPEPPS activity, a cell-based NPEPPS activity assay amenable to high-throughput screening (HTS) by adapting a fluorescent peptidase activity assay^2 was developed. Since NPEPPS is one of the only aminopeptidases capable of cleaving glutamine-peptide bonds^3 and the major aminopeptidase responsible for degradation of poly-glutamine sequences in the brain^4, a fluorogenic compound, glutamine-7-amino-4-methylcoumarin (Q-AMC), was selected as a substrate to measure NPEPPS activity. The peptide bond of Q-AMC is hydrolyzed by NPEPPS to release glutamine and a fluorescent product, 7-amino-4-methylcoumarin (AMC), when Q-AMC is added directly to the cell culture media. This change in fluorescence is measured as a readout of aminopeptidase activity (FIG. 2A). Overexpression of NPEPPS in HEK293T cells results in a significant increase in fluorescence, whereas knock-down or chemical inhibition of NPEPPS decrease fluorescence change (FIG. 2B-D), validating that the changes in fluorescence observed in the Q-AMC-based assay directly correlate with changes in NPEPPS activity. A high-throughput (HTS) screen (201,845 compounds) was conducted at the UCLA MSSR core (FIG. 2E). Follow-up assays and chemical clustering identified three series of compounds with distinct chemical clusters (FIG. 2F).
(§1) To investigate the effects of JMM compounds that enhance NPEPPS activity and assess their cellular toxicity, 139 compounds in the JMM series (i.e., JMM001-JMM139) were tested in dose responses (20-step, 2-fold dilution) using NPEPPS activity and viability assays in HEK293T cells. 76 compounds harboring different modifications produce concentration-dependent enhancement on NPEPPS activity compared to DMSO control (FIG. 4). […] A therapeutic index (TI, a ratio of IC50 over EC50) is used to evaluate the relative safety profiles of the compounds. […] 16 JMM compounds show both improved potency and reduced toxicity (EC50<10 μM and TI>10, Table 1).

HEK293T cells = assay: Cell viability assay (CellTiter Glo); assay type: cell-based, human; conditions: for IC50: Homo sapiens, HEK-293T, log10 transformed, IC50 = concentration that suppresses 50% cell viability, HEK293T cells; for Therapeutic index: ratio of IC50 (cell viability) over EC50 (NPEPPS activity)
Protocol: HEK293T cells (AATC) were maintained in complete media and cell viability assay was conducted in a fresh-prepared minimal medium containing essential amino acids, vitamin, AlbuMax (Invitrogen 11021-029) in 1×HBS buffer. White 384-well assay plates (Greiner EK-30080) were coated with poly-L-ornithine (0.1 mg/ml) overnight and washed once with 1×PBS. 15 μl minimal medium was then added to each well. 250 nl of compounds dissolved in OmniSolve DMSO were pinned to each well via Biomek FX^P Liquid Handling Automation from compound source plates. Cells were harvested, resuspended in minimal medium, and seeded at 16,500 cells/15 μl/well in the 384-well assay plates. 24 hrs later, 25 μl/well CellTiter Glo reagent (Promega G7572) was added into each well, and luminescence (0.5 second integration time) was acquired following manufacture's protocol. Luminescence count normalized to DMSO control is used as a readout of cell viability.
as §1

T1 sequence (P55786 whole entry): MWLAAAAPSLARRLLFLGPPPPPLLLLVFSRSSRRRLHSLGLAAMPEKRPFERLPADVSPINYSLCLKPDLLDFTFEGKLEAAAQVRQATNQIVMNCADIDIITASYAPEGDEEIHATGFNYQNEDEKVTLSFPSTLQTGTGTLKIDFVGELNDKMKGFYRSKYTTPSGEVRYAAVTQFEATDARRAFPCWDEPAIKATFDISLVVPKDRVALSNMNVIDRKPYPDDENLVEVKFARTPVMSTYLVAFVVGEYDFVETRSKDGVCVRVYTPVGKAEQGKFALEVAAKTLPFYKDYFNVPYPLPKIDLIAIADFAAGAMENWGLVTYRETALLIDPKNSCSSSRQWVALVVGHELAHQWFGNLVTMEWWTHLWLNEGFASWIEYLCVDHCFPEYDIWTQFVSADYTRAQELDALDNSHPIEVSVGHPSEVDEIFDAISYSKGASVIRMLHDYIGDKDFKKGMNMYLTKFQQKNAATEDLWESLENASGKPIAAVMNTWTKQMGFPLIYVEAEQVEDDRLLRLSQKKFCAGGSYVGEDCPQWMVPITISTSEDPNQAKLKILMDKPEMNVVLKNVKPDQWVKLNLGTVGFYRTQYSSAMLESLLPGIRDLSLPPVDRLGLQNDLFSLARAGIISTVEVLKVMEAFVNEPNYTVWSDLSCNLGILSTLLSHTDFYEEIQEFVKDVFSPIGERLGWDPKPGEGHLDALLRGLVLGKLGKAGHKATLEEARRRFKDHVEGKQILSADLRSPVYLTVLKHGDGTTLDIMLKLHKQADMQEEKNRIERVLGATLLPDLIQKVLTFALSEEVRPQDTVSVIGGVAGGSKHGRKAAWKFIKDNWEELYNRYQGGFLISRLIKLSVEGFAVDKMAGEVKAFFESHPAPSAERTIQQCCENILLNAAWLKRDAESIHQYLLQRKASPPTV

SMILES	EC50 (NPEPPS) [µM]	IC50 (HEK293T cells) [µM]	Therapeutic index (HEK293T cells)
CCN(Cc1ccc(C(F)(F)F)cc1)c1nsc2ccccc12 [JMM092]	44.7	126	2.84
COc1ccc(CNc2nsc3ccccc23)cc1 [JMM003]	257	263	1.03
Clc1ccc(CNc2nsc3ccc(OCc4ccccc4)cc23)cc1Cl [JMM090]	22.4	30.9	1.39
CCCCCCN(Cc1ccc(C(F)(F)F)cc1)c1nsc2ccccc12 [JMM136, N-Hexyl-N-(4-(trifluoromethyl)benzyl)benzo[d]isothiazol-3-amine]	8.51	13.5	1.60
COc1ccc(C(Nc2nsc3ccccc23)c2ccc(OC)cc2)cc1 [JMM053]	10	3390	335.12
c1ccc(CNc2ccc(CNc3nsc4ccc(OCc5ccccc5)cc34)cc2)cc1 [JMM122, N-(4-(Benzylamino)benzyl)-5-(benzyloxy)benzo[d]isothiazol-3-amine]	4.68	324	69.07
C[C@H](Nc1nsc2ccccc12)c1cccc2ccccc12 [JMM101]	70.8	407	5.74
c1ccc(CNc2nsc3ccccc23)cc1 [JMM009]	129	224	1.76
Fc1ccc(COc2ccc(CNc3nsc4ccc(OCc5ccccc5)cc34)cc2)cc1 [JMM117, 5-(Benzyloxy)-N-(4-((4-fluorobenzyl)oxy)benzyl)benzo[d]isothiazol-3-amine]	57.5	110	1.88
CN(Cc1ccc(OCc2ccccc2)cc1)c1nsc2cnccc12 [JMM078]	2.29	49	21.66
CN(Cc1ccc(C(F)(F)F)cc1)c1nsc2cnccc12 [JMM084]	4.57	23.4	5.13
CN(Cc1ccccc1)c1ccc(CNc2nsc3ccc(OCc4ccccc4)cc23)cc1 [JMM125, N-(4-(Benzyl(methyl)amino)benzyl)-5-(benzyloxy)benzo[d]isothiazol-3-amine]	40.7	603	14.75
C#Cc1cccc2c(NCc3ccc(C(F)(F)F)cc3)nsc12 [JMM064]	30.2	69.2	2.30
COc1ccc(CN(C)c2nsc3ccc(OC)cc23)cc1 [JMM100]	79.4	126	1.56
c1ccc2c(NCc3ccncc3)nsc2c1 [JMM012]	148	126	0.86
FC(F)(F)c1ccc(COc2ccc3snc(NCc4ccc(OCc5ccccc5)cc4)c3c2)cc1 [JMM131, N-(4-(Benzyloxy)benzyl)-5-((4-(trifluoromethyl)benzyl)oxy)benzo[d]isothiazol-3-amine]	61.7	355	5.78
FC(F)(F)c1ccc(CNc2n[nH]c3ccccc23)cc1 [JMM038]	100	105	1.06
c1ccc(COc2ccc3snc(NCc4cccs4)c3c2)cc1 [JMM119, 5-(Benzyloxy)-N-(thiophen-2-ylmethyl)benzo[d]isothiazol-3-amine]	120	501	4.20

SMILES	EC50 (NPEPPS) [µM]	IC50 (HEK293T cells) [µM]	Therapeutic index (HEK293T cells)
FC(F)(F)c1ccc(COc2ccc(CNc3nsc4ccccc34)cc2)cc1 [JMM031]	7.41	77.6	10.38
CC(Nc1nsc2ccccc12)c1ccccc1 (stereo not drawn) [JMM075]	200	132	0.65
Fc1ccc(CNc2nsc3ccccc23)cc1 [JMM011]	316	389	1.25
FC(F)(F)c1ccc(COc2ccc(CNc3nsc4ccc(OCc5ccccc5)cc34)cc2)cc1 [JMM121, 5-(Benzyloxy)-N-(4-((4-(trifluoromethyl)benzyl)oxy)benzyl)benzo[d]isothiazol-3-amine]	15.8	295	18.30
FC(F)(F)Oc1ccc(CNc2nsc3ccccc23)cc1 [JMM054]	123	132	1.08
COc1ccc(CN(Cc2ccc(C(F)(F)F)cc2)c2nsc3ccccc23)cc1OC [JMM069]	17.8	1510	84.99
FC(F)(F)c1ccc(CNc2noc3ccccc23)cc1 [JMM039]	20.4	61.7	3.03
Cc1ccc(CNc2nsc3ccccc23)cc1 [JMM023]	51.3	229	4.47
COc1ccc2snc(NCc3ccc(OCc4ccccc4)cc3)c2c1 [JMM094]	37.2	178	4.80
Clc1ccc(COc2ccc(CNc3nsc4ccc(OCc5ccccc5)cc34)cc2)cc1 [JMM112, 5-(Benzyloxy)-N-(4-((4-chlorobenzyl)oxy)benzyl)benzo[d]isothiazol-3-amine]	5.5	23.4	4.29
FC(F)(F)c1ccc2snc(NCc3ccc(OCc4ccccc4)cc3)c2c1 [JMM134, N-(4-(Benzyloxy)benzyl)-5-(trifluoromethyl)benzo[d]isothiazol-3-amine]	13.8	257	18.60
FC(F)(F)c1ccc(CNc2nccc3ccccc23)cc1 [JMM037]	112	95.5	0.84
c1ccc(COc2ccc3snc(NCc4ccc(OCc5cccs5)cc4)c3c2)cc1 [JMM132, 5-(Benzyloxy)-N-(4-(thiophen-2-ylmethoxy)benzyl)benzo[d]isothiazol-3-amine]	5.13	12	2.36
CN(Cc1ccc(OCc2ccc(Cl)cc2)cc1)c1nsc2ccc(OCc3ccccc3)cc12 [JMM108, 5-(Benzyloxy)-N-(4-((4-chlorobenzyl)oxy)benzyl)-N-methylbenzo[d]isothiazol-3-amine]	5.62	40.7	7.13
COc1ccc(C(=O)Nc2nsc3ccccc23)cc1OC [JMM002]	1020	1410	1.36
COc1ccc(CNc2ccc(F)cn2)cc1OC [JMM046]	214	479	2.24
COc1ccc(CNc2n[nH]c3ccccc23)cc1OC [JMM047]	60.3	170	2.85
FC(F)(F)c1ccc(CNc2nsc3cnccc23)cc1 [JMM065]	22.4	132	5.91
